Experimental data reported in ChEMBL document CHEMBL1148772, “Inhibition of Mycobacterium tuberculosis, Mycobacterium bovis, and Mycobacterium avium by novel dideoxy nucleosides” (J Med Chem, 2007).
≈ marks a conversion by molar mass, not a printed value.

Assays:
Mycobacterium avium [1] = assay: Antimycobacterial activity against Mycobacterium avium ATCC 25291 at 100 uM by microplate alamar blue assay; type: functional
[2] = tested on: Mycobacterium tuberculosis; assay: Antimycobacterial activity against Mycobacterium tuberculosis H37Ra at 100 uM by microplate alamar blue assay; type: functional
[3] = tested on: Mycobacterium tuberculosis; assay: Antimycobacterial activity against Mycobacterium tuberculosis H37Ra at 50 uM by microplate alamar blue assay; type: functional
[4] = tested on: Mycobacterium tuberculosis; assay: Antimycobacterial activity against Mycobacterium tuberculosis H37Ra at 10 uM by microplate alamar blue assay; type: functional
Mycobacterium avium [5] = assay: Antimycobacterial activity against Mycobacterium avium ATCC 25291 by microplate alamar blue assay; type: functional
Mycobacterium avium [6] = assay: Antimycobacterial activity against Mycobacterium avium ATCC 25291 at 10 uM by microplate alamar blue assay; type: functional
Mycobacterium avium [7] = assay: Antimycobacterial activity against Mycobacterium avium ATCC 25291 at 50 uM by microplate alamar blue assay; type: functional
[8] = Cytotoxicity against Vero cells by MTT assay; type: cell-based; details: African green monkey
[9] = Cytotoxicity against human foreskin fibroblast cells by MTT assay; type: cell-based
[10] = tested on: Mycobacterium tuberculosis; assay: Antimycobacterial activity against Mycobacterium tuberculosis H37Ra by microplate alamar blue assay; type: functional
Bacillus subtilis = assay: Antibacterial activity against Bacillus subtilis ATCC 6633; type: functional
[11] = tested on: Mycobacterium tuberculosis; assay: Antimycobacterial activity against Mycobacterium tuberculosis H37Ra at 1 uM by microplate alamar blue assay; type: functional
Mycobacterium avium [12] = assay: Antimycobacterial activity against Mycobacterium avium ATCC 25291 at 2 uM by microplate alamar blue assay; type: functional
Streptococcus pneumoniae = assay: Antibacterial activity against Streptococcus pneumoniae ATCC 49619; type: functional
Streptococcus pyogenes = assay: Antibacterial activity against Streptococcus pyogenes ATCC 19615; type: functional

| SMILES | inhibition at 100 µM (Mycobacterium avium [1]) [%] | inhibition at 100 µM [2] [%] | inhibition at 50 µM [3] [%] | inhibition at 10 µM [4] [%] | MIC90 [10] [µg/mL] | further results |
| --- | --- | --- | --- | --- | --- | --- |
| N#Cc1cn(C2CCC(CO)O2)c2ncnc(N)c12 (stereo not drawn) | 0 | 50 | 40 |  |  |  |
| Nc1nc(F)c2ccn([C@H]3CC[C@@H](CO)O3)c2n1 | 100 | 50 | 40 | 25 |  | MIC90 (Mycobacterium avium [5]): 10 µg/mL (≈ 39.6 µM); inhibition at 10 µM (Mycobacterium avium [6]): 35%; inhibition at 50 µM (Mycobacterium avium [7]): 100% |
| CCCC#Cc1cn([C@H]2CC[C@@H](CO)O2)c(=O)[nH]c1=O | 0 | 50 |  |  |  |  |
| CCCCCCCCCCC#Cc1cn([C@H]2C[C@H](F)[C@@H](CO)O2)c(=O)[nH]c1=O | 90 | 100 | 100 | 50 | 10 (≈ 25.3 µM) | CC50 [8]: > 100 µg/mL; CC50 [9]: > 100 µg/mL; MIC90 (Mycobacterium avium [5]): 100 µg/mL (≈ 253 µM); inhibition at 50 µM (Mycobacterium avium [7]): 40% |
| Nc1ccn([C@H]2CC[C@@H](CO)O2)c(=O)n1 [ZALCITABINE] | 0 | 0 |  |  |  |  |
| CCCc1ccc(C#Cc2cn([C@H]3C[C@H](F)[C@@H](CO)O3)c(=O)[nH]c2=O)cc1 | 25 | 100 | 100 | 50 | 50 (≈ 134 µM) |  |
| CCCCCCCCCC#Cc1cn([C@H]2CC[C@@H](CO)O2)c(=O)[nH]c1=O | 100 | 100 | 100 | 100 | 1 (≈ 2.76 µM) | CC50 [8]: > 100 µg/mL; CC50 [9]: > 100 µg/mL; MIC (Bacillus subtilis): 100 µg/mL (≈ 276 µM); MIC90 (Mycobacterium avium [5]): 10 µg/mL (≈ 27.6 µM); inhibition at 1 µM [11]: 80%; inhibition at 10 µM (Mycobacterium avium [6]): 50%; inhibition at 50 µM (Mycobacterium avium [7]): 100% |
| Nc1nc(=O)n([C@H]2CC[C@@H](CO)O2)cc1I | 0 | 0 |  |  |  |  |
| CCCCCCCCCCCC#Cc1cn([C@H]2CC[C@@H](CO)O2)c(=O)[nH]c1=O | 100 | 100 | 100 | 50 | 10 (≈ 25.6 µM) | CC50 [8]: > 100 µg/mL; CC50 [9]: > 100 µg/mL; MIC90 (Mycobacterium avium [5]): 10 µg/mL (≈ 25.6 µM); inhibition at 1 µM [11]: 50%; inhibition at 10 µM (Mycobacterium avium [6]): 80%; inhibition at 50 µM (Mycobacterium avium [7]): 100% |
| CCCCCCCCC#Cc1cn([C@H]2C[C@H](F)[C@@H](CO)O2)c(=O)[nH]c1=O | 50 | 100 | 100 | 25 | 10 (≈ 27.3 µM) | CC50 [8]: > 100 µg/mL; CC50 [9]: > 100 µg/mL |
| CCCCCC#Cc1cn([C@H]2C[C@H](F)[C@@H](CO)O2)c(=O)[nH]c1=O | 0 | 50 |  |  |  |  |
| CC[C@H]1OC(=O)[C@H](C)[C@@H](O[C@H]2C[C@@](C)(OC)[C@@H](O)[C@H](C)O2)[C@H](C)[C@@H](O[C@@H]2O[C@H](C)C[C@H](N(C)C)[C@H]2O)[C@](C)(OC)C[C@@H](C)C(=O)[C@H](C)[C@@H](O)[C@]1(C)O [CLARITHROMYCIN] |  |  |  |  |  | MIC90 (Mycobacterium avium [5]): 2 µg/mL (≈ 2.67 µM); inhibition at 2 µM (Mycobacterium avium [12]): 95% |
| CCSc1nc(N)nc2c1ncn2[C@H]1CC[C@@H](CO)O1 | 25 | 100 | 100 | 35 | 10 (≈ 33.9 µM) | inhibition at 50 µM (Mycobacterium avium [7]): 25% |
| O=c1[nH]c(=O)n([C@H]2CC[C@@H](CO)O2)cc1Br | 0 | 0 |  |  |  |  |
| O=c1[nH]c(=O)n([C@H]2CC[C@@H](CO)O2)cc1C#Cc1ccccc1 | 25 | 25 | 25 |  |  | inhibition at 10 µM (Mycobacterium avium [6]): 25%; inhibition at 50 µM (Mycobacterium avium [7]): 25% |
| Nc1nc(O)c2ncn([C@H]3CC[C@@H](CO)O3)c2n1 | 0 | 0 |  |  |  |  |
| CC(=O)OC[C@@H]1CC[C@H](n2cc(Cl)c(=O)[nH]c2=O)O1 | 0 | 0 |  |  |  |  |

| SMILES | inhibition at 100 µM (Mycobacterium avium [1]) [%] | inhibition at 100 µM [2] [%] | inhibition at 50 µM [3] [%] | inhibition at 10 µM [4] [%] | MIC90 [10] [µg/mL] | further results |
| --- | --- | --- | --- | --- | --- | --- |
| Cc1cn([C@H]2CC[C@@H](CO)O2)c(=O)nc1N | 0 | 50 | 50 | 50 |  |  |
| CCCCCCCCCCCCC#Cc1cn(C2CC(F)C(CO)O2)c(=O)[nH]c1=O (stereo not drawn) | 90 | 100 | 100 | 100 | 1 (≈ 2.37 µM) | CC50 [8]: > 100 µg/mL; CC50 [9]: > 100 µg/mL; MIC90 (Mycobacterium avium [5]): 100 µg/mL (≈ 237 µM); inhibition at 1 µM [11]: 80% |
| CO[C@H]1/C=C/O[C@@]2(C)Oc3c(C)c(O)c4c(O)c(c(/C=N/N5CCN(C)CC5)c(O)c4c3C2=O)NC(=O)/C(C)=C\C=C\[C@H](C)[C@H](O)[C@@H](C)[C@@H](O)[C@@H](C)[C@H](OC(C)=O)[C@@H]1C [RIFAMPIN] |  |  |  |  | 0.5 (≈ 0.608 µM) | MIC90 (Mycobacterium avium [5]): 2 µg/mL (≈ 2.43 µM); inhibition at 2 µM (Mycobacterium avium [12]): 90% |
| CCCCCCCCC#Cc1cn([C@H]2CC[C@@H](CO)O2)c(=O)[nH]c1=O | 90 | 100 | 100 | 100 | 1 (≈ 2.87 µM) | MIC (Streptococcus pneumoniae): 100 µg/mL (≈ 287 µM); CC50 [8]: > 100 µg/mL; CC50 [9]: > 100 µg/mL; MIC (Bacillus subtilis): 100 µg/mL (≈ 287 µM); MIC90 (Mycobacterium avium [5]): 100 µg/mL (≈ 287 µM); inhibition at 1 µM [11]: 50%; inhibition at 10 µM (Mycobacterium avium [6]): 25%; MIC (Streptococcus pyogenes): 100 µg/mL (≈ 287 µM); inhibition at 50 µM (Mycobacterium avium [7]): 25% |
| Nc1nc(N)c2ncn([C@H]3CC[C@@H](CO)O3)c2n1 | 0 | 25 |  |  |  |  |
| COc1nc(N)nc2c1ncn2[C@H]1CC[C@@H](CO)O1 [METACAVIR] | 20 | 0 |  |  |  | inhibition at 50 µM (Mycobacterium avium [7]): 20% |
| Nc1nc(=O)n([C@H]2CC[C@@H](CO)O2)cc1Br | 0 |  |  | 50 |  |  |
| Nc1ccn([C@@H]2CS[C@H](CO)O2)c(=O)n1 [LAMIVUDINE] | 0 | 0 |  |  |  |  |
| CCCCCCCCCCCC#Cc1cn([C@H]2C[C@H](F)[C@@H](CO)O2)c(=O)[nH]c1=O | 25 | 100 | 100 | 60 | 10 (≈ 24.5 µM) | CC50 [8]: > 100 µg/mL; CC50 [9]: > 100 µg/mL |
| NC(=O)c1cn([C@H]2CC[C@@H](CO)O2)c2ncnc(N)c12 | 0 | 0 |  |  |  |  |
| CC(=O)OC[C@@H]1CC[C@H](n2ccc(=O)[nH]c2=O)O1 | 0 | 0 |  |  |  |  |
| Nc1ncnc2c1ncn2[C@H]1CC[C@@H](CO)O1 | 0 | 0 |  |  |  |  |
| CC(=O)OC[C@@H]1CC[C@H](n2cc(Cl)c(=S)[nH]c2=O)O1 | 0 | 100 | 60 |  | 50 (≈ 164 µM) |  |
| O=c1[nH]c(=S)c(Cl)cn1[C@H]1CC[C@@H](CO)O1 | 0 | 100 | 50 |  | 50 (≈ 190 µM) |  |
| O=c1[nH]c(=O)n([C@H]2CC[C@@H](CO)O2)cc1Cl | 0 | 0 |  |  |  |  |
| CCCCCCCCCCCCC#Cc1cn([C@H]2CC[C@@H](CO)O2)c(=O)[nH]c1=O | 100 | 100 | 100 | 50 | 10 (≈ 24.7 µM) | CC50 [8]: > 100 µg/mL; CC50 [9]: > 100 µg/mL; MIC90 (Mycobacterium avium [5]): 50 µg/mL (≈ 124 µM); inhibition at 1 µM [11]: 25%; inhibition at 50 µM (Mycobacterium avium [7]): 50% |
